We go through one compound from patent US20140212502A1, “NANO- AND MICRO-BUBBLES WITH ULTRASOUND-TRIGGERED RELEASE AND IMAGING FUNCTIONALITIES” (NATIONAL YANG-MING UNIVERSITY, priority 2013, published 2014).

Series [1] is described as follows: Release test with and without sonication, confocal microscope observation of leakage and dispersion. Format: physicochemical. The following applies: sonication 1 MHz, 1 W/cm^2, duty ratio 20%, 20 min. The procedure: FIG. 5 is a diagram showing the confocal microscope observation for CPT-loaded CHC/SPIO NBs (FIG. 5(a)) and FITC-loaded CHC/SPIO NBs (FIG. 5(b), indicated by arrows). […] FIGS. 5(d) and (e) show the confocal microscope observation for CPT-loaded CHC/SPIO NBs after the release test without sonication and with sonication (ultrasonic frequency: 1 MHz, power density: 1 W/cm^2, duty ratio: 20%) for 20 min, respectively. […] Scale bar 5 μm.
The confocal photographs of the as-received CHC/SPIO MBs loaded with hydrophobic agent (CPT, blue fluorescence) and hydrophilic agent (FITC, green fluorescence) are shown in FIGS. 5(a) and 5(b), respectively. […] This implies that CHC/SPIO MBs can carry both hydrophobic and hydrophilic agents, and the encapsulation ability of CHC/SPIO MBs for CPT (a hydrophobic agent) was better than that for FITC (a hydrophilic agent). […] This was not observed for the CPT-containing medium (without CHC) under the same sonication for 20 min.

Series [2] deals with breast tumor cells (MDA-MB-231). Nature of the series: In vitro cytotoxicity, cell viability by MTT assay. In kind it is cell-based. The following applies: with sonication for 20 min, then 24 hr culture; 75 μL NB suspension or CPT 1.3 μg/mL. Here is the method: FIG. 6 is a diagram showing the cell viability of breast tumor cells (MDA-MB-231) cultured under different conditions. In FIG. 6(a), the control group was performed on the cells cultured without adding the model drug (CPT) and performing sonication. In FIG. 6(b), cells were sonicated for 20 min. In FIG. 6(c), cells were cultured with the medium containing 75 μL of CPT-loaded CHC/SPIO NB suspension without sonication for 20 min. In FIG. 6(d), cells were cultured with the medium containing 75 μL of CPT-loaded CHC/SPIO NB suspension with sonication for 20 min. In FIG. 6(e), cells were cultured with CPT-containing medium (CPT/medium concentration: 1.3 μg/mL) under sonication for 20 min. […] After above treatments, the cell mediums were removed and the cells were washed with PBS. Then, fresh medium was added and further cultured for 24 hr. The cell viability was measured by MTT assay.
Thus, CPT molecules could efficiently access tumor cells. Moreover, the amphiphilic CHC molecules from ruptured bubbles also might be helpful to increase transmembrane permeation.
(Tetrazolium dyes change colour on reduction, which living cells bring about.)

For the compound `CC[C@@]1(O)C(=O)OCc2c1cc1n(c2=O)Cc2cc3ccccc3nc2-1` [CPT, camptothecin], the “dispersion of CPT in hydrophilic medium” value in series [1] is given as “not well-dispersed under sonication”. For the same compound, the “cytotoxicity / cell viability” value in series [2] is recorded as “higher viability than those treated with CPT-loaded CHC/SPIO NBs under sonication”.
